Target: Mushroom tyrosinase (Agaricus bisporus, UniProt O42713+Q00024+C7FF04+C7FF05)
Experiment: Inhibition of mushroom tyrosinase preincubated for 5 mins followed by addition of […] as substrate measured after 30 mins

| IC50 | Structure (SMILES) |
| --- | --- |
| 0.61 µM | O=C1CSC(c2ccccc2O)N1c1ccc(-c2ccc(N3C(=O)CSC3c3ccccc3O)cc2)cc1 (stereo not drawn) |
| 4.41 µM | COc1ccc(C2SCC(=O)N2c2ccc(-c3ccc(N4C(=O)CSC4c4ccc(OC)cc4)cc3)cc2)cc1 (stereo not drawn) |
| 7.71 µM | Cc1cc(-c2ccc(N3C(=O)CSC3c3ccccc3)c(C)c2)ccc1N1C(=O)CSC1c1ccccc1 (stereo not drawn) |
| 2.81 µM | COc1cc(C2SCC(=O)N2c2ccc(-c3ccc(N4C(=O)CSC4c4ccc(O)c(OC)c4)c(C)c3)cc2C)ccc1O (stereo not drawn) |
| 342.52 µM | O=C1CSC(c2ccc(O)cc2)N1c1ccc(-c2ccc(N3C(=O)CSC3c3ccc(O)cc3)cc2)cc1 (stereo not drawn) |
| 21.61 µM | O=C1CSC(c2ccccc2)N1c1ccc(-c2ccc(N3C(=O)CSC3c3ccccc3)cc2)cc1 (stereo not drawn) |
| 2.41 µM | COc1cc(C2SCC(=O)N2c2ccc(-c3ccc(N4C(=O)CSC4c4ccc(O)c(OC)c4)cc3)cc2)ccc1O (stereo not drawn) |
| < 500 µM | Cc1cc(-c2ccc(N3C(=O)CSC3c3ccc(N(C)C)cc3)c(C)c2)ccc1N1C(=O)CSC1c1ccc(N(C)C)cc1 (stereo not drawn) |

Reference: ChEMBL document CHEMBL4033656, “Organocatalyzed and mechanochemical solvent-free synthesis of novel and functionalized bis-biphenyl substituted thiazolidinones as potent tyrosinase inhibitors: SAR and molecular modeling studies” (Eur J Med Chem, 2017)
